The target in one assay is Bcl2:LD3 complex (CDH-2) (Homo sapiens, UniProt P10415). The assay can be described thus: SEC-MALS drug-induced monomerization of Bcl2:LD3. Conditions: 50 µM proteins, 100 µM drug. As to the method: LD6 was further characterized by Size Exclusion Chromatography coupled to Light Scattering (SEC-MALS) for solution behavior, and to study dimerization and drug-induced monomerization properties. LD6 was injected at 50–100 µM into a Superdex^TM 75 300/10 GL column (GE Healthcare) using a high-performance liquid chromatography system (Ultimate 3000, Thermo Scientific) at a flow rate of 0.5 ml/min. The UV spectrum at 280 nm was collected along with static light scatter signal by a MALS device (miniDAWN TREOS, Wyatt). […] Then the mixtures were treated with either 100 µM (two-fold excess) of the corresponding drugs or the same volume of DMSO to detect complex formation and forced dissociation in SEC-MALS. The light scatter signal of the sample was collected from three different angles and the results were analyzed using the ASTRA software (version 6.1, Wyatt).
Supplementary Figure 1: Biophysical characterization of CDH-2.
Drug concentrations from 0.01 nM to
10 µM were pre-incubated with 4 µM LD3, then the mixtures were injected over a Bcl2-immobilized chip.
Response units reflect the remaining interaction of Bcl2 and LD3 in the presence of serial diluted Drug-
2. d) SEC-MALS analysis of CDH-2 showing Bcl2:LD3 complex with DMSO (black trace) and Bcl2:LD3
and LD3 (16 kDa) eluted around 22 minutes.
(§1) (1 picture or pasted object on this page, not shown here)

Assay [1] has as its system JAK/STAT pathway SEAP expression in HEK293T cells. Kind of assay: CDH-GEMS receptor signaling SEAP assay. Format: cell-based. The settings on record: Suppl Fig 9d.
Excerpt: To test modularity and performance robustness of the CDHs in different molecular contexts, we inserted these modules in the generalizable extracellular molecule sensor (GEMS) receptor signaling pathway platform[24] and built CDH-GEMS. In these constructs the CDHs are localized extracellularly and function as ectodomain switches, fused to the backbone of the erythropoietin receptor, and an intracellular interleukin 6 receptor domain which activates the JAK/STAT pathway (Fig. 3d). The CDH-GEMS trigger the activation of the JAK/STAT pathway by the dimerization of their subunits. Thus, the drugs are expected to split the CDHs inactivating the signaling pathway as assessed by the expression of the reporter protein SEAP. All three CDH-GEMS were responsive to their respective drugs dynamic response range varied from approximately 6-fold (CDH-2) to 8-fold (CDH-1,3) (Fig. 3e). […] The CDH-GEMS were also reversible upon intermittent drug treatment (Supplementary Fig. 7h, i). Despite that comparisons between CDH-TFs and CDH-GEMS are not straightforward due to differences in the reporter signaling pathways, we observe a general trend for the CDHs to present lower IC50s when used as extracellular modules, which is consistent with overcoming drug permeability issues in cells.
HEK293T cells were maintained in DMEM medium with 10% FBS (Gibco) and Pen/Strep (Thermo Fisher). Cells were maintained and split every two days at around 80% confluence. HEK293T cells were seeded 24 h before transfection, and transfected with the lipofectamine 3000 kit (Thermo Fisher). Plasmids were cotransfected according to the Table S7. For the drug OFF-switch experiments, drugs were added 12 h post transfection and incubated with cells for 24 h before the SEAP detection assay.
Secreted alkaline phosphatase (SEAP) activity (U/L) in cell culture supernatants was quantified by kinetic measurements at 405 nm (1 min/measurement for 30 cycles) of absorbance increase due to phosphatase-mediated hydrolysis of para-nitrophenyl phosphate (pNPP).
Apparent IC50s of SPR drug competition assay were calculated using three-parameter nonlinear regression in GraphPad Prism (Version 8.3.0). Representative data of cellular assays are presented as individual values and mean values (bars). n = 3 refers to biological replicates. All IC50/EC50 values of cellular assays (CDH-TF, CDH-GEMS, AIR-TF and AIR-GEMS) reported were calculated using four-parameter nonlinear regression ± s.d.
Supplementary Figure 9: Comparison of ON-state reporter expression of weak affinity variants of LD3 in CDH-1/2-GEMS platform. a) ON-state expression of CDH-1-GEMS with LD3 and LD3_v3. b) Drug dose-dependent responses in engineered cells determined for the CDH-1-GEMS with LD3 and LD3_v3. c) ON-state expression of CDH-2-GEMS with LD3 and LD3_v3. d) Drug dose-dependent responses in engineered cells determined for the CDH-2-GEMS with LD3 and LD3_v3. In the data shown HEK293T cells were […]
quantification was done 24 hours after drug treatment. a, c) The bar charts show the mean ± s.d. of n = 3 biologically independent samples overlaid with a scatter dot plot of the original data points. b, d) Each […]
parameter nonlinear regression.
as §1

Several values for one entry are separate records, joined by “and”; a condition that tells them apart may be missing. Equal entries are not always repeated. Entries after “also recorded” stand apart in the source; their conditions may differ.

Results on 1 compound are retold here after PMC8486872, “A rational blueprint for the design of chemically-controlled protein switches” (Nature Communications, 2021).

Sequence of Bcl2:LD3 complex (CDH-2) (P10415 with tags, fused parts or gaps): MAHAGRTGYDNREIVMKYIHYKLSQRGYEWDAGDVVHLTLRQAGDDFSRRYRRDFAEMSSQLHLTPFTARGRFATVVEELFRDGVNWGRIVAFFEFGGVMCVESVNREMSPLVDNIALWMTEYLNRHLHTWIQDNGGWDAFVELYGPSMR

`CC1(C)CCC(CN2CCN(c3ccc(C(=O)NS(=O)(=O)c4ccc(NCC5CCOCC5)c([N+](=O)[O-])c4)c(Oc4cnc5[nH]ccc5c4)c3)CC2)=C(c2ccc(Cl)cc2)C1` [Drug-2, Venetoclax]: at Bcl2:LD3 complex (CDH-2), the “disruption of Bcl2:LD3 complex by SEC-MALS” value was “effectively disrupts; also recorded: did not result in complex formation”. For the same compound, the SEAP % in assay [1] (Bcl2:LD3, 0.001 nM) is 300.653% and 318.178% and 392.457%; in assay [1] (Bcl2:LD3, 0.01 nM) it was 308.454% and 345.509% and 340.557%; in assay [1] (Bcl2:LD3, 0.1 nM), 274.777% and 330.791% and 315.073%; in assay [1] (Bcl2:LD3, 1 nM) it was 266.802% and 312.808% and 313.179%; in assay [1] (Bcl2:LD3, 10 nM), 230.526% and 261.334% and 264.64%; in assay [1] (Bcl2:LD3, 50 nM), 182.557% and 182.048% and 191.603%. For the same compound, the SEAP % in assay [1] (Bcl2:LD3, 100 nM) is 137.415% and 148.555% and 171.413%; in assay [1] (Bcl2:LD3, 500 nM), 103.855% and 121.158% and 118.471%; in assay [1] (Bcl2:LD3, 1000 nM) it was 85.4687% and 78.7046% and 88.4921%; in assay [1] (Bcl2:LD3_v3, 0.001 nM) it was 435.755% and 579.505% and 634.353%; in assay [1] (Bcl2:LD3_v3, 0.01 nM), 426.219% and 513.058% and 543.118%; in assay [1] (Bcl2:LD3_v3, 0.1 nM), 389.885% and 497.895% and 507.442%. In addition, the SEAP % in assay [1] (Bcl2:LD3_v3, 1 nM) was 349.489% and 416.083% and 425.558%; in assay [1] (Bcl2:LD3_v3, 10 nM), 179.661% and 237.904% and 242.508%; in assay [1] (Bcl2:LD3_v3, 50 nM), 112.482% and 132.539% and 150.605%; in assay [1] (Bcl2:LD3_v3, 100 nM), 97.6884% and 119.034% and 118.118%; in assay [1] (Bcl2:LD3_v3, 500 nM), 69.1684% and 95.9179% and 92.604%; in assay [1] (Bcl2:LD3_v3, 1000 nM), 52.9029% and 66.0602% and 70.7894%.
